Measurements from publication PMC9082781 (ACS infectious diseases, 2021).
Values after ≈ are worked out from the molar mass of the structure shown. Residues, ends and D or L forms follow the SMILES beside them. *: point of attachment. Myristoyl = CCCCCCCCCCCCCC(=O)*; Lauroyl = CCCCCCCCCCCC(=O)*; Decanoyl = CCCCCCCCCC(=O)*; Octanoyl = CCCCCCCC(=O)*; Hexanoyl = CCCCCC(=O)*

Each molecule was assayed on Klebsiella pneumonia ATCC 13883.
Assay type: cell-based, Klebsiella pneumoniae

| SMILES | MIC KP [µM] |
| --- | --- |
| CCCCCCCCCC(=O)N[C@@H](CCCCN)C(=O)N[C@@H](CCCNC(=N)N)C(=O)N[C@H](C(=O)N[C@@H](Cc1c[nH]c2ccccc12)C(=O)N[C@@H](CCC(N)=O)C(=O)N[C@@H](CCCNC(=N)N)C(N)=O)[C@@H](C)CC [Peptide C10-KR6] (Decanoyl-KRIWQR-NH2; C-terminus assumed) | >50 |
| CCCCCC(=O)N[C@@H](CCCCN)C(=O)N[C@@H](CCCNC(=N)N)C(=O)N[C@H](C(=O)N[C@@H](Cc1c[nH]c2ccccc12)C(=O)N[C@@H](CCC(N)=O)C(=O)N[C@@H](CCCNC(=N)N)C(N)=O)[C@@H](C)CC [Peptide C6-KR6] (Hexanoyl-KRIWQR-NH2; C-terminus assumed) | >50 |
| CCCCCCCCCCCC(=O)N[C@@H](CCCCN)C(=O)N[C@@H](CCCNC(=N)N)C(=O)N[C@H](C(=O)N[C@@H](Cc1c[nH]c2ccccc12)C(=O)N[C@@H](CCC(N)=O)C(=O)N[C@@H](CCCNC(=N)N)C(=O)N[C@H](C(=O)N[C@@H](CCCCN)C(N)=O)[C@@H](C)CC)[C@@H](C)CC [Peptide C12-KR8] (Lauroyl-KRIWQRIK-NH2) | >50 |
| CCCCCC(=O)N[C@@H](CCCCN)C(=O)N[C@@H](CCCNC(=N)N)C(=O)N[C@H](C(=O)N[C@@H](Cc1c[nH]c2ccccc12)C(=O)N[C@@H](CCC(N)=O)C(=O)N[C@@H](CCCNC(=N)N)C(=O)N[C@H](C(=O)N[C@@H](CCCCN)C(N)=O)[C@@H](C)CC)[C@@H](C)CC [Peptide C6-KR8] (Hexanoyl-KRIWQRIK-NH2) | >50 |
| CCCCCCCCCCCC(=O)N[C@@H](CCCCN)C(=O)N[C@@H](CCCNC(=N)N)C(=O)N[C@H](C(=O)N[C@@H](Cc1c[nH]c2ccccc12)C(=O)N[C@@H](CCC(N)=O)C(=O)N[C@@H](CCCNC(=N)N)C(N)=O)[C@@H](C)CC [Peptide C12-KR6] (Lauroyl-KRIWQR-NH2; C-terminus assumed) | >50 |
| CCCCCCCC(=O)N[C@@H](CCCCN)C(=O)N[C@@H](CCCNC(=N)N)C(=O)N[C@H](C(=O)N[C@@H](Cc1c[nH]c2ccccc12)C(N)=O)[C@@H](C)CC [Peptide C8-KR4] (Octanoyl-KRIW-NH2; C-terminus assumed) | >50 |

Second part, the molecule after the results:

| MIC KP [µM] | SMILES |
| --- | --- |
| >50 | CCCCCCCCCCCCCC(=O)N[C@@H](CCCCN)C(=O)N[C@@H](CCCNC(=N)N)C(=O)N[C@H](C(=O)N[C@@H](Cc1c[nH]c2ccccc12)C(=O)N[C@@H](CCC(N)=O)C(=O)N[C@@H](CCCNC(=N)N)C(=O)N[C@H](C(=O)N[C@@H](CCCCN)C(N)=O)[C@@H](C)CC)[C@@H](C)CC [Peptide C14-KR8] (Myristoyl-KRIWQRIK-NH2) |
| >50 | CCCCCC(=O)N[C@@H](CCCCN)C(=O)N[C@@H](CCCNC(=N)N)C(=O)N[C@H](C(=O)N[C@@H](Cc1c[nH]c2ccccc12)C(=O)N[C@@H](CCC(N)=O)C(=O)N[C@@H](CCCNC(=N)N)C(=O)N[C@H](C(=O)N[C@@H](CCCCN)C(=O)N[C@@H](CC(=O)O)C(=O)N[C@@H](Cc1ccccc1)C(N)=O)[C@@H](C)CC)[C@@H](C)CC [Peptide C6-KR10] (Hexanoyl-KRIWQRIKDF-NH2) |
| 12.5 (≈ 23 µg/mL) | CCCCCCCCCCCC(=O)N[C@@H](CCCCN)C(=O)N[C@@H](CCCNC(=N)N)C(=O)N[C@H](C(=O)N[C@@H](Cc1c[nH]c2ccccc12)C(=O)N[C@@H](CCC(N)=O)C(=O)N[C@@H](CCCNC(=N)N)C(=O)N[C@H](C(=O)N[C@@H](CCCCN)C(=O)N[C@@H](CC(=O)O)C(=O)N[C@@H](Cc1ccccc1)C(=O)N[C@@H](CC(C)C)C(=O)N[C@@H](CCCNC(=N)N)C(N)=O)[C@@H](C)CC)[C@@H](C)CC [Peptide C12-KR12] (Lauroyl-KRIWQRIKDFLR-NH2) |
| <6.2 | CCCCCCCC(=O)N[C@@H](CCCCN)C(=O)N[C@@H](CCCNC(=N)N)C(=O)N[C@H](C(=O)N[C@@H](Cc1c[nH]c2ccccc12)C(=O)N[C@@H](CCC(N)=O)C(=O)N[C@@H](CCCNC(=N)N)C(=O)N[C@H](C(=O)N[C@@H](CCCCN)C(=O)N[C@@H](CC(=O)O)C(=O)N[C@@H](Cc1ccccc1)C(=O)N[C@@H](CC(C)C)C(=O)N[C@@H](CCCNC(=N)N)C(N)=O)[C@@H](C)CC)[C@@H](C)CC [Peptide C8-KR12] (Octanoyl-KRIWQRIKDFLR-NH2) |
